The fold induction is the ratio of treated to control signal. As a reminder, the inhibition is the change of the read-out against control, counted positive when it falls.

This note sets out measurements from US20230183179A1, “NOVEL CELL METABOLISM MODULATING COMPOUNDS AND USES THEREOF” (CRESCENTA BIOSCIENCES, priority 2020, published 2023).

Assay [1] relates to differentiated 3T3-L1 mouse adipocyte cells. In words: Adipocyte glucose consumption in differentiated 3T3-L1 cells (colorimetric glucose assay of the medium). The class given is cell-based. The settings on record: 3T3-L1, 24 h, compound 10 μM, loss of glucose from culture medium, mean fold change (compound/DMSO). As for the experimental part:
Activity of compounds on adipocyte glucose consumption was tested in differentiated 3T3-L1 mouse adipocyte cells. 3T3-L1 preadipocytes (ATCC) were routinely cultured in a growth medium composed of DMEM high-glucose (Sigma), 10% FBS (Gibco), 10 U/ml penicillin and 10 μg/ml streptomycin (P/S; Gibco). To induce adipogenic differentiation, a confluent layer of 3T3-L1 cells were incubated with the growth medium containing 2 μM rosiglitazone, 1 μM dexamethasone, 500 μM IBMX, and 1 μg/ml insulin (Sigma). Forty-eight (48) hours later (on day 2) and on days 4 and 6, medium of the cells was replaced with fresh medium containing 1 μg/ml insulin. On days 8 and 10, the medium was refreshed with regular growth medium and addition of insulin was omitted. On day 11, medium of the cells were 10 replaced with fresh medium containing either the indicated compounds (10 μM) or the vehicle in which the compounds were dissolved (DMSO). The final concentration of DMSO was 0.1% (v/v). Growth medium containing 0.1% DMSO was incubated in culture wells containing no cells and used as control. 24 hours later, medium was harvested and subjected to centrifugation at 10,000 g for 5 min. Glucose concentration in the supernatants was determined using a 15 colorimetric assay (Glucose Assay Kit I, Eton Biosciences). Glucose consumption in compound and vehicle treated cells was measured as loss of glucose from the culture medium and represented as mean fold change (compound/DMSO)±standard deviation (SD).

In assay [2] the target is T1, His6 tagged human recombinant FABP4 (Homo sapiens, UniProt P15090).
T1 construct: purchased Cayman Chemicals 10009549
T1 sequence (P15090 whole entry): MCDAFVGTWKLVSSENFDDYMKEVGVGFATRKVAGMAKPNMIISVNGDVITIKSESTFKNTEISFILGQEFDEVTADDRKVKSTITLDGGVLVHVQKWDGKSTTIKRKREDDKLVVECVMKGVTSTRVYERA
In words: FABP4 TR-FRET assay: displacement of fluorescent fatty acid BODIPY FL C12. The settings on record: inhibition of BODIPY FL C12 binding to His6-FABP4; 1.2 μL of 1.085 mM compound in DMSO per well; triplicates, mean percent inhibition. An excerpt:
Activity of compounds with FABP4 was profiled using a Terbium (Tb) based time resolved fluorescence energy transfer (TR-FRET) assay. The assay measures the compound mediated displacement of the fluorescent fatty acid BODIPY FL C12 (Thermo Fisher; catalog number D3822) from His6 tagged human recombinant FABP4 (His6-FABP4; Cayman Chemicals, catalog number 10009549) via recording the energy transfer from TB donor molecule on anti-His6-tag antibody to acceptor BODIPY moiety. Briefly, compounds and BODIPY FL C12 were prepared at a concentration of 1.085 mM and 4.2 μM, respectively, in DMSO. 1.2 μL of each compound or DMSO (vehicle control) and 1.2 μL of BODIPY FL C12 were added into the wells of a 384-well black polypropylene plate. His6-FABP4 and Tb anti-His6 antibody were prepared in the assay buffer (25 mM Tris/HCl, pH 7.4, 0.4 mg/ml γ-globulins, 0.010% NP-40, 1 mM DTT) at a concentration of 83 nM and 49.6 nM, respectively. The protein and antibody solutions were then mixed at a ratio of 34:7 (v/v) and incubated on ice for 30 minutes. The assay was initiated by adding 41 μL of the resulting protein/antibody solution into the wells containing the compounds and BODIPY FL C12. The plate was centrifuged and incubated at room temperature for 10 min. The TR-FRET signals were recorded using an EnVision Multilabel plate reader (PerkinElmer; TB excitation 320 nm, BODIPY FL C12 emission 520 nm; TB emission 615 nm). Relative fluorescence ratio (520 nm*10,000/615 nm) were used to calculate the compound mediated inhibition of BODIPY C12 FL fatty acid binding to FABP4. The compounds were tested in triplicates and the results were represented as mean percent inhibition (compound*100/DMSO)±standard deviation (SD). Glucose consumption and FABP4 inhibition is shown below in Table 3 below. The compounds showing no inhibition of activity in the TR-FRET assay are marked as N.A. N.D. stands for “not determined”.
Background: In TR-FRET formats the signal depends on donor and acceptor labels being close together.

Take `CCCCCCc1ccc2nc(OC(C)C(=O)O)cc(-c3cccc(C#N)c3)c2c1` (stereo not drawn) [2-{[4-(3-cyanophenyl)-6-hexylquinolin-2-yl]oxy}propanoic acid]: the fold induction at 10 µM in assay [1] worked out at 1.19. Besides, the inhibition at 1085 µM (stock) in assay [2] worked out at 3.3%.
Taken in the same sequence, the figures for `CCc1ccc2nc(N(C)CC(=O)O)cc(-c3cccc(C(N)=O)c3)c2c1` [2-{[4-(3-carbamoylphenyl)-6-ethylquinolin-2-yl](methyl)amino}acetic acid] were 1.07 and 78%.
The corresponding values for `CCCCc1ccc2nc(N(C)C(C)CC(=O)O)cc(-c3ccccc3)c2c1` (stereo not drawn) [3-[(6-butyl-4-phenylquinolin-2-yl)(methyl)amino]butanoic acid] are 1.04 and 103%.
Taken in the same sequence, the figures for `CCCCCCc1ccc2nc(N(C)CC(=O)O)cc(N3CCOCC3)c2c1` [2-{[6-hexyl-4-(morpholin-4-yl)quinolin-2-yl](methyl)amino}acetic acid] were 1.31 and 26.5%.
Regarding `CCCCc1ccc2nc(N(C)CC(=O)O)cc(-c3ccccc3F)c2c1` [2-{[6-butyl-4-(2-fluorophenyl)quinolin-2-yl](methyl)amino}acetic acid], the fold induction at 10 µM in assay [1] worked out at 1.33. In addition, the inhibition at 1085 µM (stock) in assay [2] was found to be 67%.
Regarding `CCCCCc1ccc2nc(N(C)CC(=O)O)cc(-c3cccc(C(N)=O)c3)c2c1` [2-{[4-(3-carbamoylphenyl)-6-pentylquinolin-2-yl](methyl)amino}acetic acid], the fold induction at 10 µM in assay [1] is 1.04. The inhibition at 1085 µM (stock) in assay [2] came to 60.4%.
The corresponding values for `Cc1cccc(CCc2ccc3nc(N(C)CC(=O)O)cc(-c4ccccc4)c3c2)c1` [2-[methyl({6-[2-(3-methylphenyl)ethyl]-4-phenylquinolin-2-yl})amino]acetic acid] are 1.53 and 50.2%.
Taken in the same sequence, the figures for `CCCc1ccc2nc(N(C)CC(=O)O)cc(-c3ccccc3)c2c1` [2-[methyl(4-phenyl-6-propylquinolin-2-yl)amino]acetic acid] were 1.36 and 104%.
Turning to `CCCCc1ccc2nc(N(C)CC(=O)O)cc(-c3ccccc3C)c2c1` [2-{[6-butyl-4-(2-methylphenyl)quinolin-2-yl](methyl)amino}acetic acid], in assay [1], the fold induction at 10 µM was 1.27. Besides, the inhibition at 1085 µM (stock) in assay [2] was found to be 99.7%.
For `CN(CCc1ccc2nc(N(C)CC(=O)O)cc(-c3ccccc3)c2c1)c1ccccc1` [2-[methyl(6-{2-[methyl(phenyl)amino]ethyl}-4-phenylquinolin-2-yl)amino]acetic acid], the fold induction at 10 µM in assay [1] was 1.17. Also, the inhibition at 1085 µM (stock) in assay [2] was determined as 55.9%.
Taken in the same sequence, the figures for `CCCCc1ccc2nc(N(C)CC(C)C(=O)O)cc(-c3cccc(C#N)c3)c2c1` (stereo not drawn) [3-{[6-butyl-4-(3-cyanophenyl)quinolin-2-yl](methyl)amino}-2-methylpropanoic acid] were 1.21 and 38.7%.
The corresponding values for `CCCCCCc1ccc2nc(N3CC(C(=O)O)CC3=O)cc(-c3ccccc3)c2c1` (stereo not drawn) [1-(6-hexyl-4-phenylquinolin-2-yl)-5-oxopyrrolidine-3-carboxylic acid] are 1.11 and 6.12%.
As to `CCCCCc1ccc2nc(N(C)CC(=O)O)cc(-c3ccccc3)c2c1` [2-[methyl(6-pentyl-4-phenylquinolin-2-yl)amino]acetic acid], the fold induction at 10 µM in assay [1] amounted to 1.32. In addition, the inhibition at 1085 µM (stock) in assay [2] was 90.5%.
Taken in the same sequence, the figures for `CCCCCCc1ccc2nc(N(C)CC(C)C(=O)O)cc(-c3cccnc3)c2c1` (stereo not drawn) [3-{[6-hexyl-4-(pyridin-3-yl)quinolin-2-yl](methyl)amino}-2-methylpropanoic acid] were 1.16 and 54.7%.
The corresponding values for `CCCCC(=O)Nc1ccc2nc(N(C)CC(=O)O)cc(-c3ccccc3)c2c1` [2-[methyl(6-pentanamido-4-phenylquinolin-2-yl)amino]acetic acid] are 0.98 and 28.7%.
Taken in the same sequence, the figures for `CC(C(=O)O)N(C)c1cc(-c2ccccc2)c2cc(Cl)ccc2n1` (stereo not drawn) [2-[(6-chloro-4-phenylquinolin-2-yl)(methyl)amino]propanoic acid] were 1.18 and 97.4%.
As for `CCCCCCCCc1ccc2nc(N(CCC)CC(=O)O)cc(-c3ccc(F)cc3)c2c1` [2-{[4-(4-fluorophenyl)-6-octylquinolin-2-yl](propyl)amino}acetic acid], in assay [1], the fold induction at 10 µM is 1.2. Besides, the inhibition at 1085 µM (stock) in assay [2] was determined as 53.1%.
Taken in the same sequence, the figures for `CCCCc1ccc2nc(N(C)C(C(=O)O)C(C)C)cc(-c3cccc(C#N)c3)c2c1` (stereo not drawn) [N-(6-butyl-4-(3-cyanophenyl)quinolin-2-yl)-N-methylvaline?] were 1.18 and 21%.
The corresponding values for `CCCCCCCCc1ccc2nc(N(CC)CC(=O)O)cc(-c3ccc(F)cc3)c2c1` [2-{ethyl[4-(4-fluorophenyl)-6-octylquinolin-2-yl]amino}acetic acid] are 1.25 and 65.8%.
Turning to `CCCCCCc1ccc2nc(N(C)CC(C)C(=O)O)cc(-c3cccc(C#N)c3)c2c1` (stereo not drawn) [3-{[4-(3-cyanophenyl)-6-hexylquinolin-2-yl](methyl)amino}-2-methylpropanoic acid], in assay [1], the fold induction at 10 µM was found to be 1.3. The inhibition at 1085 µM (stock) in assay [2] turned out to be 56.5%.
Regarding `CCCCCCc1ccc2nc(-n3ccc(C(=O)O)c3)cc(-c3ccccc3)c2c1` [1-(6-hexyl-4-phenylquinolin-2-yl)-1H-pyrrole-3-carboxylic acid], the fold induction at 10 µM in assay [1] turned out to be 1.09. Further, the inhibition at 1085 µM (stock) in assay [2] is under 0%.
Taken in the same sequence, the figures for `CN(CC(=O)O)c1cc(-c2ccccc2)c2cc(CCc3cccc(Cl)c3)ccc2n1` [2-({6-[2-(3-chlorophenyl)ethyl]-4-phenylquinolin-2-yl}(methyl)amino)acetic acid] were 1.47 and 57.1%.
Taken in the same sequence, the figures for `CCCCCCc1ccc2nc(OC(C)C(=O)O)cc(-c3ccncc3)c2c1` (stereo not drawn) [2-{[6-hexyl-4-(pyridin-4-yl)quinolin-2-yl]oxy}propanoic acid] were 1.3 and 21%.
Taken in the same sequence, the figures for `CCCCc1ccc2nc(N3CCCC(C(=O)O)C3)cc(-c3ccccc3)c2c1` (stereo not drawn) [1-(6-butyl-4-phenylquinolin-2-yl)piperidine-3-carboxylic acid] were 1.25 and 98.1%.
On to `CCCCc1ccc2nc(N3CCOC(C(=O)O)C3)cc(-c3ccccc3)c2c1` (stereo not drawn) [4-(6-butyl-4-phenylquinolin-2-yl)morpholine-2-carboxylic acid], for which, in assay [1], the fold induction at 10 µM amounted to 1.07. The inhibition at 1085 µM (stock) in assay [2] was 21.1%.
In the case of `CN(CC(=O)O)c1cc(-c2ccncc2)c2cc(CCc3ccccn3)ccc2n1` [2-[methyl({6-[2-(pyridin-2-yl)ethyl]-4-(pyridin-4-yl)quinolin-2-yl})amino]acetic acid], the fold induction at 10 µM in assay [1] stood at 1.06. Besides, in assay [2], the inhibition at 1085 µM (stock) was 16.1%.
The corresponding values for `CCCCCCc1ccc2nc(N3CCCC(C(=O)O)C3)cc(-c3ccccc3)c2c1` (stereo not drawn) [1-(6-hexyl-4-phenylquinolin-2-yl)piperidine-3-carboxylic acid] are 1.16 and 88.3%.
